{
  "source": "paper PMC10950204",
  "about": "(Journal of medicinal chemistry, 2024)",
  "key": {"HepG2": {"test_system": "HepG2", "test": "MTS-based cytotoxicity assay", "assay_type": "cell-based, human"}, "P. falciparum 3D7": {"test_system": "P. falciparum 3D7", "test": "SYBR Green I-based proliferation assay, ring stage parasites", "settings": "read-out: Antiplasmodial Activity 3D7 EC50, 72 h"}, "MCF7": {"test_system": "MCF7", "test": "MTS-based cytotoxicity assay", "assay_type": "cell-based, human"}, "P. falciparum Dd2 [1]": {"test_system": "P. falciparum Dd2", "test": "SYBR Green I-based proliferation assay, ring stage parasites", "settings": "for fold loss of antiplasmodial potency: relative to compound 1; for further decrease in the potency: on removing the nitrogen from pyridine / thiophenylpyridine"}, "Caco-2 cells": {"test_system": "Caco-2 cells", "test": "Caco-2 permeability", "assay_type": "in vitro ADME", "settings": "Table S1, Caco-2"}, "human EphA2": {"biological_target": "human EphA2 (Homo sapiens, UniProt P29317)", "sequence (P29317 24-976)": "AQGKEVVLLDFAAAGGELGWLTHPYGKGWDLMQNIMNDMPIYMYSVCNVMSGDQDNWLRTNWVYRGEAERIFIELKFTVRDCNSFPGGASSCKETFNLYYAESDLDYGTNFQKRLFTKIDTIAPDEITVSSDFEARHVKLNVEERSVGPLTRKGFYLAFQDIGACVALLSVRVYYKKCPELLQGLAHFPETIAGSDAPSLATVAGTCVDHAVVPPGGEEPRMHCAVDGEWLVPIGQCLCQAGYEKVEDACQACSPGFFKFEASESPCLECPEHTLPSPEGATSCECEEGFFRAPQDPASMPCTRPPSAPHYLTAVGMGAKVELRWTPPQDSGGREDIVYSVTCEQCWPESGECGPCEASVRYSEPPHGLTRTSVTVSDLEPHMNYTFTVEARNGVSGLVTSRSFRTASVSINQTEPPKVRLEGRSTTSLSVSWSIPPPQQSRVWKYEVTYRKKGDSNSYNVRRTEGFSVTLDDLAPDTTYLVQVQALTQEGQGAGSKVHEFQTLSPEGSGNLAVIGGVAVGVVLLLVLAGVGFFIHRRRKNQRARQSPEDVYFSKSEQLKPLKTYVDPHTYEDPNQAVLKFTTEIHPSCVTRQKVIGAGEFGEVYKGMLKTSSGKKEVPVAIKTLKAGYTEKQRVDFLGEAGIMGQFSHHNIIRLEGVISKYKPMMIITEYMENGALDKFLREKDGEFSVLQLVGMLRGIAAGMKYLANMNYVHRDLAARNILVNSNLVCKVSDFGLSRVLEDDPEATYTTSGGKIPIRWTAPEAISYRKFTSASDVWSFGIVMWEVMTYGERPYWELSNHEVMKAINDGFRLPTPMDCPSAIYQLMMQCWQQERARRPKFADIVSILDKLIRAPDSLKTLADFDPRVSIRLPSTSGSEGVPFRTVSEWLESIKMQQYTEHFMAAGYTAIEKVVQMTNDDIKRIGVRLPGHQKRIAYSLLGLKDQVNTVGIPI", "test": "SelectScreen kinase profiling, in vitro FRET-based assay", "assay_type": "biochemical", "settings": "compared to compound 5"}, "[2]": {"test_system": "asynchronous Dd2 cultures", "test": "Rate of killing assay, flow cytometry-based", "settings": "10 × EC50 for as little as 12 h, washed, monitored 4 days"}, "[3]": {"test_system": "P. falciparum strains 3D7, IPC 5188, IPC 5202, IPC 6261", "test": "Piperaquine survival assay", "settings": "10 × EC50 for 48 h, regardless of strain"}, "P. falciparum Dd2 [4]": {"test_system": "P. falciparum Dd2", "test": "SYBR Green I-based proliferation assay, asynchronous blood stage cultures", "settings": "compared to compound 5, Dd2"}, "P. falciparum Dd2-B2": {"test_system": "P. falciparum Dd2-B2", "test": "Minimum inoculum of resistance", "assay_type": "cell-based", "settings": "3 × EC10, monitored 50 days"}, "[5]": {"test_system": "panel of 468 kinases (403 nonmutant kinases)", "test": "KINOMEscan Profiling Service, binding at 1 μM", "parameters": "species or system human", "settings": "screened at 1 μM"}, "[6]": {"test_system": "P. falciparum strains 3D7, IPC 5188, IPC 5202, IPC 6261", "test": "Ring stage survival assay", "settings": "10 × EC50 for 6 h, survival at 72 h, all strains"}, "[7]": {"test_system": "P. falciparum 3D7 blood-stage parasites", "test": "Parasite reduction ratio", "settings": "10 × EC50, ring stage"}, "[8]": {"test": "In vitro metabolic stability in mouse liver microsomes", "assay_type": "in vitro ADME"}, "[9]": {"test_system": "P. falciparum lines AcAS A597 V, CARL I1139K, PI4K S1320L", "test": "Cross resistance evaluation, SYBR Green I assay", "assay_type": "cell-based", "settings": "PI4K mutant lines"}, "[10]": {"test": "Kinetic solubility, miniaturized shake-flask method", "assay_type": "physicochemical", "settings": "Table S1, 1× PBS pH 7.4"}, "[11]": {"test_system": "P. falciparum strains 3D7, IPC 5188, IPC 5202, IPC 6261", "test": "EC50 determination in artemisinin and piperaquine resistant isolates", "settings": "all strains, Figure 4C"}, "Synchronized Dd2 culture": {"test_system": "Synchronized Dd2 culture", "test": "Stage specific assay, YOYO-1 flow cytometry and microscopy", "assay_type": "cell-based, P. falciparum"}, "[12]": {"settings": "cited from earlier work"}, "ring stage": {"test_system": "ring stage", "settings": "read-out: ring stage EC50; cited from earlier work"}},
  "note": "Read-outs that look alike come from different tables or passages of the source.",
  "data": [
    {"compound": "3-Amino-N-(4-((4-ethylpiperazin-1-yl)methyl)-3-(trifluoromethyl)phenyl)-5-methylbenzamide [Compound 28]", "values": [
      {"measurement": "EC50", "setting": "HepG2", "value": "3200 ± 238", "unit": "nM"},
      {"measurement": "Selectivity Index (SI) HepG2", "setting": "HepG2; HepG2 EC50/P. falciparum Dd2 EC50", "value": 8.6},
      {"measurement": "EC50", "setting": "P. falciparum 3D7", "value": "235 ± 34", "unit": "nM"},
      {"measurement": "EC50", "setting": "MCF7", "value": "5220 ± 517", "unit": "nM"},
      {"measurement": "Selectivity Index (SI) MCF7", "setting": "MCF7; MCF7 EC50/P. falciparum Dd2 EC50", "value": 14},
      {"measurement": "Resistance Index (RI)", "setting": "P. falciparum Dd2 [1]; P. falciparum Dd2 EC50/P. falciparum 3D7 EC50", "value": 1.6},
      {"measurement": "EC50", "setting": "P. falciparum Dd2 [1]; read-out: Antiplasmodial Activity Dd2 EC50, ring stage parasites, 72 h", "value": "372 ± 37", "unit": "nM"},
      {"measurement": "fold loss of antiplasmodial potency", "setting": "P. falciparum Dd2 [1]", "value": 6, "unit": "fold"}
    ]},
    {"compound": "CCN1CCN(Cc2ccc(NC(=O)c3cc(Cl)cc(NC(=O)c4cncc(-c5cccs5)c4)c3)cc2C(F)(F)F)CC1", "note": "[Compound 1, N-(3-Chloro-5-((4-((4-ethylpiperazin-1-yl)methyl)-3-(trifluoromethyl)phenyl)carbamoyl)phenyl)-5-(thiophen-2-yl)nicotinamide]", "values": [
      {"measurement": "cell permeability", "setting": "Caco-2 cells", "value": "poor"},
      {"measurement": "fold reduction in human EphA2 activity", "setting": "human EphA2", "value": "~900", "unit": "fold"},
      {"measurement": "parasite recovery after treatment", "setting": "[2]", "value": "failed to recover within 4 days"},
      {"measurement": "survival in piperaquine survival assay", "setting": "[3]", "value": "did not survive the 48 h treatment"},
      {"measurement": "fold increase in antiplasmodial activity", "setting": "P. falciparum Dd2 [4]", "value": "over 48 fold"},
      {"measurement": "parasite recovery under continuous treatment", "setting": "P. falciparum Dd2-B2", "value": "failed to recover within 50 days"},
      {"measurement": "S (10) selectivity score", "setting": "[5]", "value": 0.035},
      {"measurement": "ring stage survival", "setting": "[6]", "value": "notably higher than that of the DHA-treated cultures"},
      {"measurement": "99.9% parasite clearance time (PCT)", "setting": "[7]", "value": "less than 32 h"},
      {"measurement": "lag phase", "setting": "[7]", "value": "no lag phase detected"},
      {"measurement": "microsomal stability and clearance", "setting": "[8]", "value": "suitable microsomal stability and low clearance"},
      {"measurement": "cross-resistance, EC50 among resistant lines", "setting": "[9]", "value": "no difference"},
      {"measurement": "solubility", "setting": "[10]", "value": "poor"},
      {"measurement": "EC50 values", "setting": "[11]", "value": "low nanomolar range"},
      {"measurement": "stage specific effect", "setting": "Synchronized Dd2 culture; 5 × EC50 added at 6 HPI", "value": "parasites seemed to remain stunted in the ring stage"},
      {"measurement": "stage specific effect", "setting": "Synchronized Dd2 culture; 5 × EC50 added at 42 HPI", "value": "the effect was much less pronounced"},
      {"measurement": "stage specific effect", "setting": "Synchronized Dd2 culture; 5 × EC50 applied at both 18 and 30 HPI", "value": "there was a delayed shift, and parasites were clearly malformed"}
    ]},
    {"compound": "CCN1CCN(Cc2ccc(NC(=O)c3cc(Cl)cc(NC(=O)c4cccnc4)c3)cc2C(F)(F)F)CC1", "note": "[Compound 6, N-(3-Chloro-5-((4-((4-ethylpiperazin-1-yl)methyl)-3-(trifluoromethyl)phenyl)carbamoyl)phenyl)nicotinamide]", "values": [
      {"measurement": "microsomal stability and clearance", "setting": "[8]", "value": "metabolized rapidly"},
      {"measurement": "fold loss of antiplasmodial potency", "setting": "P. falciparum Dd2 [1]", "value": 3, "unit": "fold"}
    ]},
    {"compound": "CCN1CCN(Cc2ccc(NC(=O)c3cc(Cl)cc(NC(=O)c4ccccc4)c3)cc2C(F)(F)F)CC1", "note": "[Compound 8, 3-Benzamido-5-chloro-N-(4-((4-ethylpiperazin-1-yl)-methyl)-3-(trifluoromethyl)phenyl)benzamide]", "values": [
      {"measurement": "further decrease in the potency", "setting": "P. falciparum Dd2 [1]", "value": "4- to 5 fold"}
    ]},
    {"compound": "CCN1CCN(Cc2ccc(NC(=O)c3cc(Cl)cc(NC(=O)c4cccc(-c5cccs5)c4)c3)cc2C(F)(F)F)CC1", "note": "[Compound 9, 3-Chloro-N-(4-((4-ethylpiperazin-1-yl)methyl)-3-(trifluoromethyl)phenyl)-5-(3-(thiophen-2-yl)benzamido)-benzamide]", "values": [
      {"measurement": "further decrease in the potency", "setting": "P. falciparum Dd2 [1]", "value": "4- to 5 fold"}
    ]},
    {"compound": "CCN1CCN(Cc2ccc(NC(=O)c3cc(Cl)cc(NC(=O)c4cncc(-c5ccc(C#N)cc5)c4)c3)cc2C(F)(F)F)CC1", "note": "[Compound 16, N-(3-Chloro-5-((4-((4-ethylpiperazin-1-yl)methyl)-3-(trifluoromethyl)phenyl)carbamoyl)phenyl)-5-(4-cyanophenyl)nicotinamide]", "values": [
      {"measurement": "survival in piperaquine survival assay", "setting": "[3]", "value": "did not survive the 48 h treatment"},
      {"measurement": "ring stage survival", "setting": "[6]", "value": "notably higher than that of the DHA-treated cultures"},
      {"measurement": "99.9% parasite clearance time (PCT)", "setting": "[7]", "value": "less than 32 h"},
      {"measurement": "lag phase", "setting": "[7]", "value": "no lag phase detected"},
      {"measurement": "EC50 values", "setting": "[11]", "value": "low nanomolar range"}
    ]},
    {"compound": "CCN1CCN(Cc2ccc(NC(=O)c3cc(Cl)cc(Nc4cncc(-c5cccs5)c4)c3)cc2C(F)(F)F)CC1", "note": "[Compound 17, 3-Chloro-N-(4-((4-ethylpiperazin-1-yl)methyl)-3-(trifluoromethyl)phenyl)-5-((5-(thiophen-2-yl)pyridin-3-yl)-amino)benzamide]", "values": [
      {"measurement": "fold loss of antiplasmodial potency", "setting": "P. falciparum Dd2 [1]", "value": 6, "unit": "fold"}
    ]},
    {"compound": "CCN1CCN(Cc2ccc(NC(=O)c3cc(Cl)cc(NCc4cncc(-c5cccs5)c4)c3)cc2C(F)(F)F)CC1", "note": "[Compound 18, 3-Chloro-N-(4-((4-ethylpiperazin-1-yl)methyl)-3-(trifluoromethyl)phenyl)-5-(((5-(thiophen-2-yl)pyridin-3-yl)-methyl)amino)benzamide]", "values": [
      {"measurement": "fold loss of antiplasmodial potency", "setting": "P. falciparum Dd2 [1]", "value": 6, "unit": "fold"}
    ]},
    {"compound": "CCN1CCN(Cc2ccc(NC(=O)c3cc(Cl)cc(NC(=O)c4cncc(-c5cccs5)c4)c3)cc2)CC1", "note": "[Compound 22, N-(3-Chloro-5-((4-((4-ethylpiperazin-1-yl)methyl)phenyl)-carbamoyl)phenyl)-5-(thiophen-2-yl)nicotinamide]", "values": [
      {"measurement": "microsomal stability and clearance", "setting": "[8]", "value": "suitable microsomal stability and low clearance"}
    ]},
    {"compound": "O=C(Nc1ccnc(N2CCOCC2)c1)c1cc(Cl)cc(NC(=O)c2cncc(-c3cccs3)c2)c1", "note": "[Compound 23, N-(3-Chloro-5-((2-morpholinopyridin-4-yl)carbamoyl)-phenyl)-5-(thiophen-2-yl)nicotinamide]", "values": [
      {"measurement": "fold loss of antiplasmodial potency", "setting": "P. falciparum Dd2 [1]", "value": 13, "unit": "fold"}
    ]},
    {"compound": "CCN1CCN(Cc2ccc(NC(=O)c3cc(NC(=O)c4cncc(-c5cccs5)c4)ccc3F)cc2C(F)(F)F)CC1", "note": "[Compound 26, N-(3-((4-((4-Ethylpiperazin-1-yl)methyl)-3-(trifluoromethyl)phenyl)carbamoyl)-4-fluorophenyl)-5-(thiophen-2-yl)nicotinamide]", "values": [
      {"measurement": "EC50", "setting": "P. falciparum Dd2 [1]; Plasmodium falciparum, DD2, 72 h, read-out: Antiplasmodial Activity Dd2 EC50 (nM), ring stage parasites, 72 h", "value": 867, "unit": "nM"}
    ]},
    {"compound": "CCN1CCN(Cc2ccc(NC(=O)c3cncc(NC(=O)c4cncc(-c5cccs5)c4)c3)cc2C(F)(F)F)CC1", "note": "[Compound 30, N-(4-((4-Ethylpiperazin-1-yl)methyl)-3-(trifluoromethyl)-phenyl)-5-(5-(thiophen-2-yl)nicotinamido)nicotinamide]", "values": [
      {"measurement": "microsomal stability and clearance", "setting": "[8]", "value": "metabolized rapidly"},
      {"measurement": "improvement in both potency and selectivity", "setting": "P. falciparum Dd2 [1]; compound 30 relative to compound 29", "value": "more than 7 fold"}
    ]},
    {"compound": "CCN1CCN(Cc2ccc(NC(=O)c3cc(Br)cc(NC(=O)c4cncc(-c5cccs5)c4)c3)cc2C(F)(F)F)CC1", "note": "[Compound 32, N-(3-Bromo-5-((4-((4-ethylpiperazin-1-yl)methyl)-3-(trifluoromethyl)phenyl)carbamoyl)phenyl)-5-(thiophen-2-yl)nicotinamide]", "values": [
      {"measurement": "microsomal stability and clearance", "setting": "[8]", "value": "suitable microsomal stability and low clearance"}
    ]},
    {"compound": "CCN1CCN(Cc2ccc(NC(=O)c3cc(NC(=O)c4cncc(-c5cccs5)c4)cc(C(F)(F)F)c3)cc2C(F)(F)F)CC1", "note": "[Compound 33, N-(3-((4-((4-Ethylpiperazin-1-yl)methyl)-3-(trifluoromethyl)phenyl)carbamoyl)-5-(trifluoromethyl)-phenyl)-5-(thiophen-2-yl)nicotinamide]", "values": [
      {"measurement": "microsomal stability and clearance", "setting": "[8]", "value": "suitable microsomal stability and low clearance"}
    ]},
    {"compound": "CC1(C)c2nc(-c3ccc(F)cc3)c(Nc3ccc(Cl)cc3)n2CCN1C(=O)CN", "note": "[GNF179]", "values": [
      {"measurement": "half-life", "setting": "[12]", "value": 8.9, "unit": "h"}
    ]},
    {"compound": "Cc1cn(-c2cc(NC(=O)c3ccc(C)c(Nc4nccc(-c5cccnc5)n4)c3)cc(C(F)(F)F)c2)cn1", "note": "[nilotinib]", "values": [
      {"measurement": "EC50", "setting": "ring stage", "value": "< 1000", "unit": "nM"}
    ]}
  ]
}
